The text below walks through data of US8436171B2, “Amino substituted pyrazines as inhibitors or protein kinases” (Akinion Pharmaceuticals AB, priority 2008, dated 2013).

Each structure is given as a SMILES string. Counter-ions that a name gives are not always drawn.

Assay [1] concerns AML cell-line MV4-11 (FLT3-ITD). In words: Viability and proliferation assay in AML cell line MV4-11. Particulars: Homo sapiens; MV4-11 cells, 72 hours, viable cells by flow cytometry; read-out: Cell data MV4-11 (nM), EC50 values determined in AML-cell line. The assay is classed as cell-based. The procedure:
AML cell-line MV4-11 carries the FLT3-internal tandem duplication. This cell-line has been widely used for evaluating the effect of FLT3-kinase inhibitors on viability and proliferation.
Briefly, cells are seeded at a low density into 96-well plates. Serial dilution of compounds is added and the cells are incubated for 72 hours. Total number of viable cells is measured using flow cytometry at the end of treatment, and the effect of the compounds is calculated as % inhibition compared to vehicle treated cells.
All cells were cultured under standard cell culture conditions, at 37° Celsius in an atmosphere of 5% CO2 in 90% humidity.
AML-cell line MV4-11 was cultured in DMEM Glutamax high glucose ([…] glucose) supplemented with 10% Fetal Bovine Serum (FBS) from Invitrogen. Cells were subcultured twice weakly, growing to a density of approx 2 million cells per ml prior to subcultivation.
For viability determination, 3000-5000 cells were seeded in 50 microliter culture medium into a 96-well plate. Serial dilutions 1:3 of compounds from 10 mM DMSO stock were made in serumfree culture medium supplemented with penicillin and streptomycin. 50 microliter of the serial dilutions were added to the cell-suspension. The final concentration of compounds was from 5 micromolar to 0.8 nM, or from 500 nM to 0.08 nM respectively. The DMSO concentration was kept constant at 0.05%.
At the end of the treatment, 100 microliter viability reagent (Guava ViaCount) was added to each well and number of cells and viability was determined using flow cytometry (Guava 96-well ViaCount assay). Typically the vehicle treated (0.05% DMSO) cell-line cells had doubled three times during the experiment.
% Survival was calculated compared to the vehicle treated cells at the end of experiment. EC50 values were determined using the equation (A+((B−A)/(1+((C/x)^D)))) where A equals min, B equals max, C equals EC50 and D equals Hill slope.
For orientation: In flow cytometry, cells or beads pass a laser one at a time.

The target in a further assay is T1, recombinant human FLT3 (Homo sapiens, UniProt P36888).
T1 construct: N-terminal GST tagged, amino acids 564-end; GST (N); purchased Upstate 14-500
T1 sequence (P36888 564-993 limits assumed): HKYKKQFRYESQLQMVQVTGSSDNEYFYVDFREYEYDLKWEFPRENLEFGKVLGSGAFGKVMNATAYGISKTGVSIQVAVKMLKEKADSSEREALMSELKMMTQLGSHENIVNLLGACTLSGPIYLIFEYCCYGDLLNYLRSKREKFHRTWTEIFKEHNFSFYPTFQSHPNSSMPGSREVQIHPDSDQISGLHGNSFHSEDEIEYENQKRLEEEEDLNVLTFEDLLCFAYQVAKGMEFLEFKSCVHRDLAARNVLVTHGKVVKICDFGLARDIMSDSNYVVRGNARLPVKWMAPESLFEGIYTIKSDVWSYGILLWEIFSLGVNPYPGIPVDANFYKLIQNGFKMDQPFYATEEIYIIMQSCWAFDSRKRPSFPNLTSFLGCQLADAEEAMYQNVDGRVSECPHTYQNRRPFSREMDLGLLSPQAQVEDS
Description: In vitro FLT3 kinase assay (IMAP fluorescence polarization). The assay is classed as biochemical. Particulars: mean, n = 4-8; ATP 100 μM; FAM-CSKtide 100 nM; read-out: IC50 (nM), typical mean IC50 values determined in the FLT3 kinase assay. The procedure: The compounds according to the invention were evaluated for their inhibition of FLT3 by the following method:
In Vitro FLT3 Kinase Assay
An enzyme inhibition assay for the tyrosine kinase domain of FLT3 was established using a fluorescence polarization technique, Immobilized Metal Ion Affinity-Based Fluorescence Polarization (IMAP) from Molecular Devices.
Briefly: kinase activity is measured by incubating a fluorescent peptide substrate with the kinase domain. After completion of the kinase reaction a binding buffer is added. Upon phosphorylation of the substrate, the fluorescent peptide gains the ability to bind to a metal-coated nanoparticle. When the substrate is bound to the nanoparticle, the rotational is speed of the peptide is reduced, and thus the fluorescence polarization (fp) becomes high. Compounds inhibiting the kinase activity of the enzyme will result in a low degree of phosphorylated substrate and a low fp-signal.
IMAP Buffer kit with Progressive Binding System (Molecular Devices, #R8124): Reaction buffer: 10 mM Tris-HCL pH 7.2 with 10 mM MgCl2, 0.05% NaN3 and 0.01% Tween 20. Prior to use DTT was added to 1 mM DTT final concentration (complete reaction buffer).
Binding solution was prepared from buffer kit according to the manufactures recommendations. Binding Reagent was diluted 1:1500 in 40% Binding buffer A and 60% Binding buffer B.
FLT3 enzyme used was recombinant human FLT3 from Upstate (#14-500) 7.2 U/ml, N-terminal GST tagged, amino acids 564-end.
Substrate peptide used: FAM-CSKtide from Molecular Devices (#R7269) 20 μM, 5FAM-KKKKEEIYFFFG-NH2. […]
• Pipette into 96-well black ½ area plate: • 5 μl compound dilution or vehicle • 5 μl substrate peptide (400 nM) • 5 μl enzyme (0.05 U/ml) or complete reaction buffer for non specific background (NSB) • 5 μl ATP (400 μM) • Cover the plate and incubate at room temperature with gentle agitation II. […] Fluorescence Polarization analysis: • Measure fluorescein using a plate reader (Analyst AD) excitation wave length 485 and emission wave length 530, reading with integration time of 0.1 sec. […]
Background: In fluorescence polarisation assays a small probe gives low polarisation when free and higher when bound to something large.

`Nc1ncc(-c2ccncc2)nc1NCCc1c[nH]c2ccccc12` [Example 15, N3-[2-(1H-Indol-3-yl)ethyl]-5-pyridin-4-ylpyrazine-2,3-diamine, trifluoroacetate]: in assay [1], the EC50 – broadly, the concentration at which the effect is half-maximal – is 184 nM. The concentration for half-maximal inhibition (IC50) – broadly, the midpoint of a concentration-inhibition curve – on recombinant human FLT3 came out at 60 nM.

For `NC(=O)c1ccc(-c2cncc(N[C@H]3CC[C@H](O)CC3)n2)cc1` [Example 28, 4-{6-[(trans-4-Hydroxycyclohexyl)amino]pyrazin-2-yl}benzamide, trifluoroacetate], in assay [1], the EC50 worked out at 178 nM. For the same compound, the IC50 on recombinant human FLT3 was 159 nM.

`c1cc(-c2cncc(Nc3ccc4cc[nH]c4c3)n2)ccn1` [Example 32, N-(6-Pyridin-4-ylpyrazin-2-yl)-1H-indol-6-amine]: the EC50 in assay [1] was 373 nM. The IC50 on recombinant human FLT3 amounted to 560 nM.
